Results as given in patent publication US6177415A, “Bacteriohopanetetrol and related compounds useful for modulation of lipoxygenase activity and anti-inflammatory applications” (The United States of America as represented by the …, priority 1997, dated 2001).
Where two headings read alike, the source gives them in different places.

Columns and labels:
Prostaglandin H Synthase = molecular target: T1, Prostaglandin H Synthase (Ovis aries, UniProt P05979); assay: Prostaglandin H synthase (cyclooxygenase) assay (oxygen consumption); type: biochemical
T1 construct: purchased Oxford Biomedical Research Co., Oxford, Mich
T1 sequence (P05979 25-600): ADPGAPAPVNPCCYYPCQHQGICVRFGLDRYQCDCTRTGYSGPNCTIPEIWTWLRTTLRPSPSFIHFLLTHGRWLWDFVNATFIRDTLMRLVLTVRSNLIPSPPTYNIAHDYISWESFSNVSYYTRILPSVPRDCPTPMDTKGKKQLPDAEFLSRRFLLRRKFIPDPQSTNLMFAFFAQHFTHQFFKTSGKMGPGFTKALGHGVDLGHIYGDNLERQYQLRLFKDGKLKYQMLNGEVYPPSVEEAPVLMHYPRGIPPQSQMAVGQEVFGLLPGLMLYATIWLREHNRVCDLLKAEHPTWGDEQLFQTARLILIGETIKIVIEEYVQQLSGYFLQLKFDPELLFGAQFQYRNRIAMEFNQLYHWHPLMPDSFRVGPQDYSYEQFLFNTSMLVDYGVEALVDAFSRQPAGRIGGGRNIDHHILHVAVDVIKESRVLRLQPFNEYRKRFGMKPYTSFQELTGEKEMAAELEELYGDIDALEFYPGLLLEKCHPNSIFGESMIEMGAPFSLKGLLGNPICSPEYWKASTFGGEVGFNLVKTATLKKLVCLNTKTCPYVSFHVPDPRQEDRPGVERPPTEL
Procedure: Prostaglandin H synthase was obtained from Oxford Biomedical Research Co., Oxford, Mich. The reaction mixture (1.80 ml) consisted of 0.5 mM phenol, 1 μM hematin, enzyme (3.75 μg in 5 μl), 25 μl of inhibitor dissolved in ethanol, and potassium phosphate buffer (0.1 M, pH 7.8), and was preincubated for 3 min. The reaction was started by injecting 15 μl of arachidonic acid dissolved in ethanol, yielding a final concentration of 100 μM arachidonic acid in the reaction vessel. The disappearance of dissolved oxygen was monitored as described in Example 2. The assay system was checked by measuring the inhibition in indomethacin, a known inhibitor of prostaglandin H synthase.

[1] = test system: Arachidonic acid-induced inflammation (mouse ear); assay: Topical anti-inflammatory test against arachidonic acid-induced inflammation (mouse ear swelling); type: in vivo, mouse (ICR, male); settings: for % Inhibition of swelling: 1 hr A.A.; for % Inhibition of swelling / Ear Thickness Measurement, Left Ear (No A.A.) / Ear Thickness Measurement, Right Ear (1 hr. A.A.) / Swelling (R - L): n = 5/group; for Ear Thickness Measurement, Left Ear (No A.A.) / Ear Thickness Measurement, Right Ear (1 hr. A.A.) / Swelling (R - L): mean ± SEM
Procedure: The anti-inflammatory studies were carried out utilizing a topical model with arachidonic acid as the inflammation-inducing compound. 15-LO initiates the metabolic pathway leading to the formation of the lipoxins by converting arachidonic acid to […] (15-HPETE). Lipoxins may share some of the bioactivity associated with leukotrienes, the end-product associated with the 5-LO arachidonic acid metabolic pathway. A solution of arachidonic acid was applied to the surface of a mouse ear with the test substance (THBH) […]. Ear swelling was measured after an additional 60 minutes as an index of inflammation. For all test procedures, % inhibition was calculated according to the formula
where Ic is the increase in ear thickness (mm) in control mice and It is the increase in ear thickness in treated mice (see Example 5).
Arachidonic acid (2 mg in 20 μl acetone:pyridine:water) in a ratio of 7:2:1) was applied topically to the anterior and posterior surfaces of the right ear of mice 30 min following similar application of hopanoid or control (20 μl). Swelling of the ear was then measured by a Dyer model micrometer gauge after 60 min as an index of inflammation. For all test procedures, % inhibition was calculated according to formula (1). Five mice/dose level of test substance were used with negative and positive control groups run concurrently. The positive control was indomethacin.

Human 5-LO = molecular target: T2, Human 5-LO (Homo sapiens, UniProt P09917); assay: Assay of recombinant human 5-lipoxygenase (oxygen consumption); type: biochemical
T2 construct: purchased Oxford Biomedical Research Co., Oxford, Mich
T2 sequence (P09917 1-674): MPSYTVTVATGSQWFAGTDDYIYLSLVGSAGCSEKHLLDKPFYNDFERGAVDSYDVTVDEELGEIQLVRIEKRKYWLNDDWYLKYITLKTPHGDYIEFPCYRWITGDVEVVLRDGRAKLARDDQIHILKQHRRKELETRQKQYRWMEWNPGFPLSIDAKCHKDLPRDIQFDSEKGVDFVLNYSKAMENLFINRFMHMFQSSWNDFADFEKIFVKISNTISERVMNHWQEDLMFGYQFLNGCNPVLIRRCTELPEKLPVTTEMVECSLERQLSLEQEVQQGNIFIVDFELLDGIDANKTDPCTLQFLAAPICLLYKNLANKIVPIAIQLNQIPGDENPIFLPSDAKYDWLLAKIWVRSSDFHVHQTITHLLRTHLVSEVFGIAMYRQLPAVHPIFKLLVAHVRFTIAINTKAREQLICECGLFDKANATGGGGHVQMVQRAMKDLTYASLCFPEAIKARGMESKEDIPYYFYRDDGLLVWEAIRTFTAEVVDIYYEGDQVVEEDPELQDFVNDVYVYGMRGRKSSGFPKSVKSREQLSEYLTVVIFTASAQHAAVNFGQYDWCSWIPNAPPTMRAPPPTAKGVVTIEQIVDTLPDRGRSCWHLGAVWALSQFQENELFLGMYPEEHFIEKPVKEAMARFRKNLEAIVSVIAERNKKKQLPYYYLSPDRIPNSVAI
Procedure: The reaction mixture (1.80 ml) consisted of 0.25 mM CaCl2, 0.13 mM ATP, 7 μl of phosphatidylcholine (12 μg/2 ml ethanol), 25 μl of inhibitor dissolved in ethanol, and Tris-HCl buffer, 50 mM, pH 7.4, and preincubated for 3 min. The reaction was started by injecting 5 μl of arachidonic acid (3.8 mg/5 ml ethanol) yielding a final arachidonic acid concentration of 4.5 μM in the reaction mixture. The rate of disappearance of dissolved oxygen was monitored with an oxygen electrode at 37° C., as described in Example 2. The O2 concentration in an air-saturated aqueous solution at 37° C. was calculated to be 0.185 mM.

Soybean 15-LO = molecular target: T3, Soybean 15-LO (Glycine max, UniProt P08170); assay: Assay of soybean 15-lipoxygenase (oxygen consumption, Clark oxygen electrode); type: biochemical
T3 construct: purchased Sigma Chemical Co. (St. Louis, Mo.) Type V
T3 sequence (P08170 1-839): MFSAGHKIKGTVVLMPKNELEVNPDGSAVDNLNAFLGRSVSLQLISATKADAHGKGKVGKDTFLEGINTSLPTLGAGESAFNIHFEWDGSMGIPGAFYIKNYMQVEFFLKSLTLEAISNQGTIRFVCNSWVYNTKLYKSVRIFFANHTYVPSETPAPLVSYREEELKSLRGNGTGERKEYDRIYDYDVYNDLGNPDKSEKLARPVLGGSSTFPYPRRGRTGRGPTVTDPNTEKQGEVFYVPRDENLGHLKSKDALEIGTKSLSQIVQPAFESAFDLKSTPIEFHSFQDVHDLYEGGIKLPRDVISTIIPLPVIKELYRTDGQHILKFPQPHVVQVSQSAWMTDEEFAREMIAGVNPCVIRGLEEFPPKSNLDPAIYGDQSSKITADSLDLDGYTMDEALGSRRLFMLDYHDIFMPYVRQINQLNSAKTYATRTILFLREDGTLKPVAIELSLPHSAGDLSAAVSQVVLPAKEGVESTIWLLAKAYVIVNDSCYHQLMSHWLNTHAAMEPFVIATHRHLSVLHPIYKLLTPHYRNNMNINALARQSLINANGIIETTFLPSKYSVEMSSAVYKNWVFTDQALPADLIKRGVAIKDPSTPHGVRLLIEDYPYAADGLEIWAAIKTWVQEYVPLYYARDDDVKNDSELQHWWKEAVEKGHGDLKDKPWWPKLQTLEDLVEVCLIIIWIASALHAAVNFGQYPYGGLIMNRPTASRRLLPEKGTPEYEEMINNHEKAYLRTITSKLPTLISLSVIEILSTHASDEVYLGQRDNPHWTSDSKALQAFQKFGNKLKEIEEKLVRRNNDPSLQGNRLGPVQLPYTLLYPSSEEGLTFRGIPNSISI
Procedure: Initial screening was carried out on three hopanoids isolated from Z. mobilis (FIGS. 1,b,c,d). These compounds were purified as described and screened for their ability to inhibit three enzymes known for their activity in the metabolism of arachidonic acid. These enzymes, soybean 15-lipoxygenase (15-LO), human 5-lipoxygenase (5-LO) and prostaglandin H synthase (Table I), are known to be inhibited by most non-steroidal anti-inflammatory drugs (Parthasarathy and Rankin. 1992. Prog. Lipid. Res. vol. 31, p. 127). Soybean 15-LO was inhibited by one of the hopanoids, tetrahydroxybacteriohopane (THBH), with an IC50 of about 10 μM. […] The two other natural hopanoid compounds, THBH-GA and THBH-Et, were also evaluated for their effect on soybean 15-LO.
Soybean 15 LO (Type V) was obtained from Sigma Chemical Co. (St. Louis, Mo.). The reaction mixture (1.8 ml) consisted of 0.1 M borate buffer, pH 9.0, 5 μl (0.5 μg, 315 units) of soybean 15-LO dissolved in borate buffer, and 25 μl of inhibitor dissolved in ethanol, and was preincubated for 3 min. The reaction was started by injecting 100 μl of substrate mixture (prepared fresh daily and consisting of 1.0 mg arachidonic acid sonicated in 2.3 ml 0.1 M borate buffer, pH 9.0) yielding a final concentration of 50.9 μM arachidonic acid in the reaction vessel. The rate of disappearance of dissolved oxygen was monitored with a Clark Oxygen Electrode (Yellow Springs Instruments, Yellow Springs, Ohio) with the temperature controlled at 25° C., according to the method described by Breton et al. (1993. Prostaalandins, Leucotrienes, and Fatty Acids. vol. 49, p. 929, herein incorporated by reference). The O2 concentration in an air-saturated aqueous solution at 25° C., was calculated to be 0.24 mM. The assay system was checked by measuring the inhibition of phenidone, a known inhibitor of soybean 15-LO. Each potential inhibitor was tested at each of the listed concentrations at least three times and enzyme activities presented are the means ± standard deviations, reported as relative activities (calculated assuming that the activity in the minus-inhibitor control=100). The actual activities of the controls (in units of μM O2 consumed/min/mg protein) are also presented as a footnote to Table I.

[2] = control = 100, read-out: Enzyme Activity (Relative ± S.D.)
[3] = 25 μM, control = 100, read-out: Enzyme Activity (Relative ± S.D.)
[4] = 50 μM, control = 100, read-out: Enzyme Activity (Relative ± S.D.)
[5] = read-out: Enzyme Activity (Relative ± S.D.)

SMILES: COc1ccc2c(c1)c(CC(=O)O)c(C)n2C(=O)c1ccc(Cl)cc1 [Indomethacin, indomethacin, reference compound]
- remaining activity at 2.4 µM (Prostaglandin H Synthase; 2.4 μM, control = 100, read-out: Enzyme Activity (Relative ± S.D.)): 7 ± 2%
- % Inhibition of swelling ([1]; 3 mg/ear): 56%
- Ear Thickness Measurement, Left Ear (No A.A.) ([1]; 3 mg/ear): 22.2 ± 0.5 × 0.01 mm
- Ear Thickness Measurement, Right Ear (1 hr. A.A.) ([1]; 3 mg/ear): 29.4 ± 1.5 × 0.01 mm
- Swelling (R - L) ([1]; 3 mg/ear): 7.2 ± 1.5 × 0.01 mm

SMILES: O=C1CCN(c2ccccc2)N1 [Phenidone, phenidone, reference compound]
- remaining activity at 25 µM (Human 5-LO; [2]): 55 ± 2%
- remaining activity at 25 µM (Soybean 15-LO; [3]): 34 ± 4%

SMILES: C[C@H](CC[C@@H](O)[C@@H](O)[C@@H](O)CO)[C@H]1CC[C@]2(C)[C@H]3CC[C@@H]4[C@@]5(C)CCCC(C)(C)[C@@H]5CC[C@@]4(C)[C@]3(C)CC[C@@H]12 [THBH, tetrahydroxybacteriohopane]
- remaining activity at 25 µM (Prostaglandin H Synthase; [3]): 102 ± 3%
- remaining activity at 50 µM (Prostaglandin H Synthase; [4]): 103 ± 2%
- inhibition of prostaglandin H synthase (in words) (Prostaglandin H Synthase; 25 or 50 μM): not significantly inhibited
- remaining activity at 25 µM (Human 5-LO; [2]): 98 ± 2%
- remaining activity at 50 µM (Human 5-LO; [4]): 97 ± 1%
- inhibition of human 5-LO (in words) (Human 5-LO; 25 or 50 μM): not significantly inhibited
- % Inhibition of swelling ([1]; 10 mg/ear): 41%
- Ear Thickness Measurement, Left Ear (No A.A.) ([1]; 10 mg/ear): 22.0 ± 0.7 × 0.01 mm
- Ear Thickness Measurement, Right Ear (1 hr. A.A.) ([1]; 10 mg/ear): 31.6 ± 1.5 × 0.01 mm
- Swelling (R - L) ([1]; 10 mg/ear): 9.6 ± 1.1 × 0.01 mm
- effect on arachidonic acid-caused swelling (in words) ([1]; mouse ear): significantly affects swelling caused by the application of arachidonic acid
- IC50 (Soybean 15-LO): ~10 µM
- selectivity for 15-LO over 5-LO and prostaglandin H synthase (in words) (Soybean 15-LO): selectively inhibits 15-LO without inhibiting either 5-LO or prostaglandin H synthase
- remaining activity at 6.75 µM (Soybean 15-LO; [5]): 68 ± 5%
- remaining activity at 12.5 µM (Soybean 15-LO; [5]): 48 ± 9%
- remaining activity at 25 µM (Soybean 15-LO; [5]): 15 ± 6%
- remaining activity at 50 µM (Soybean 15-LO; [5]): 4 ± 3%
- remaining activity at 100 µM (Soybean 15-LO; [5]): 11 ± 2%

SMILES: CC(=O)OCC(OC(C)=O)C(OC(C)=O)C(CCC(C)C1CCC2(C)C1CCC1(C)C2CCC2C3(C)CCCC(C)(C)C3CCC21C)OC(C)=O (stereo not shown) [THBH-Acet]
- inhibition or stimulation of soybean 15-LO (in words) (Soybean 15-LO): destroyed its ability to inhibit this 15-LO
- remaining activity at 25 µM (Soybean 15-LO; [5]): 89 ± 11%
- remaining activity at 50 µM (Soybean 15-LO; [5]): 114 ± 17%

SMILES: CC(CCC(O)C(O)C(O)COC1C(N)C(O)C(O)C1(O)CO)C1CCC2(C)C1CCC1(C)C2CCC2C3(C)CCCC(C)(C)C3CCC21C (stereo not shown) [THBH-Et, tetrahydroxybacteriohopane ether]
- inhibition or stimulation of soybean 15-LO (in words) (Soybean 15-LO): stimulated enzyme activity
- remaining activity at 25 µM (Soybean 15-LO; [5]): 151 ± 10%
- remaining activity at 50 µM (Soybean 15-LO; [5]): 250 ± 38%

SMILES: CC(CCC(O)C(O)C(O)COC1OC(CO)C(O)C(O)C1N)C1CCC2(C)C1CCC1(C)C2CCC2C3(C)CCCC(C)(C)C3CCC21C (stereo not shown) [THBH-GA, tetrahydroxybacteriohopane glucosamine]
- inhibition or stimulation of soybean 15-LO (in words) (Soybean 15-LO): stimulated enzyme activity
- remaining activity at 25 µM (Soybean 15-LO; [5]): 172 ± 24%
- remaining activity at 50 µM (Soybean 15-LO; [5]): 188 ± 14%
